# Assay results taken from patent publication US20050245440A1, “Regulation of a novel colon specific retinol dehydrogenase by apc and cdx2” (University of Utah Research Foundation, priority 2002, published 2005).
# “Also recorded” adds a separate entry of the source. Where two headings read alike, the source gives them in different places.
# What was measured:
# HCT116 cells = settings: following 5-Aza-CdR treatment; cited from earlier work
# RDHL [1] = assay: Northern analysis of RDHL expression in HT29 cells; format: cell-based, human; settings: 5 μM 5-Aza-CdR, cultured 6 days
# Description: (§1) Cell Culture and Drug Treatments. […] Northern blotting.
# RDH5 [2] = assay: Northern analysis of RDH5 expression in HT29 cells; settings: after 5-Aza-CdR treatment
# HT29 cells = settings: found previously (56); cited from earlier work
# [3] = system: RA response genes in HCT116 cells; assay: Microarray analysis of RA response gene expression in HCT116 cells; format: cell-based, human; settings: 5 μM 5-Aza-CdR
# Description: (§2) Cell Culture and Drug Treatments.
# (§3) Microarray Analysis. Slides were produced using a Generation m Microarray Spotter (Molecular Dynamics). Each microarray contained 4608 minimally redundant cDNAs spotted in duplicate on 3-aminopropyl-trimethoxy silane (Sigma) coated slides and UV crosslinked in a Stratalinker (Stratagene). The cDNA clones on the microarray were obtained from Research Genetics and Genome Systems. […] . Cultures were transferred to a multiscreen 96-well glass fiber filtration plate (Millipore) and growth medium voided. Twenty-five μl of 25 mM Tris-HCl, pH 8; 10 mM EDTA, 50 μl of 0.2N NaOH, 1% SDS and 160 μl of 0.7M potassium acetate, pH 4.8; 5.3M guanidine hydrochloride were added to each well of the glass filtration plate. Cell lysates were drawn through the glass filters under vacuum and filter-bound DNA was washed four times with 200 μl of 80% ethanol. Plasmid DNAs were eluted by centrifugation following the addition of 65 μl of distilled H2O. Samples were collected in a 96-well microtiter dish during centrifugation.
# (§4) Generation of microarray probes, microarray hybridizations, and scanning Total RNA was isolated using Trizol reagent (Invitrogen) and poly-A RNA was selected using an Oligotex Kit (Qiagen). […]
# (§5) Hybridizations were performed overnight at 42° C. in a humidified chamber. […] Fluorescent intensities were quantified using ArrayVision 4.0 (Imaging Research).
# RDH5 [4] = assay: Northern analysis of RDH5 expression in HCT116 cells; format: cell-based, human; settings: 5-Aza-CdR
# Description: as §1
# [5] = system: RA response genes in HT29 cells; assay: Microarray analysis of RA response gene expression in HT29 cells; format: cell-based, human
# Description: as §2, §3, §4, §5
# cdx2 [6] = assay: Northern analysis of cdx2 expression in HT29 cells; format: cell-based, human; settings: after 5-Aza-CdR
# Description: as §1
# RDHL [7] = assay: Northern analysis of RDHL in HT29 β-galactosidase-inducible cells; format: cell-based, human; settings: HT29 β-galactosidase-inducible cells (negative control); 100 μM ZnCl2 24 h vs water
# Description: as §1
# cdx2 [8] = assay: Northern analysis of cdx2 in HT29 APC-inducible cells; format: cell-based, human; settings: 100 μM ZnCl2 24 h, data not shown
# Description: as §1
# RDHL [9] = assay: Northern analysis of RDHL in HT29 APC-inducible cells; format: cell-based, human; settings: 100 μM ZnCl2 24 h vs water, normalized to GAPDH
# Description: as §1
# colon cancer cells = settings: cited from earlier work
compound,measurement,setting,value
"Nc1ncn([C@H]2C[C@H](O)[C@@H](CO)O2)c(=O)n1 [5-Aza-CdR, 5-aza-2′-deoxycytidine]",markers of differentiation,HCT116 cells,few markers of differentiation
same,RDHL expression,RDHL [1],expression of RDHL only after treatment with 5-Aza-CdR; also recorded: re-expressed
same,RDH5 levels,RDH5 [2],slightly increased; also recorded: re-expressed
same,differentiation and differentiation markers,HT29 cells,stimulates biological aspects of differentiation and the appearance of differentiation markers
same,RA response gene expression,[3],not induced
same,RDH5 expression,RDH5 [4],no effect
same,RA responsiveness of RA response genes,"[5]; 5 μM 5-Aza-CdR 10 days, then 1 μM RA 24 h",conferred RA responsiveness
same,RA response gene expression,"[5]; 5 μM 5-Aza-CdR on day 0, cultured 10 days, microarray vs PBS/ethanol",enhances
same,cdx2 expression,cdx2 [6],induction of cdx2
[Cl-].[Cl-].[Zn+2] [ZnCl2],fold RDHL induction,RDHL [7],1.2 fold
same,cdx2 induction after re-introduction of APC,cdx2 [8],no cdx2 induction
same,fold RDHL induction,RDHL [9],3.2 fold
CC(=O)[C@H]1CC[C@H]2[C@@H]3CCC4=CC(=O)CC[C@]4(C)[C@H]3CC[C@]12C [progesterone],cell growth of colon cancer cells,colon cancer cells; one study (86),failed to affect cell growth
C[C@]12CC[C@H]3[C@@H](CCC4=CC(=O)CC[C@@]43C)[C@@H]1CC[C@@H]2O [testosterone],cell growth of colon cancer cells,colon cancer cells; another group (87),increased cell growth
same,cell growth of colon cancer cells,colon cancer cells; one study (86),failed to affect cell growth
